# Where “and” joins values, the source holds several entries; their conditions need not be identical. Equal entries are not always repeated.
# Key:
# mouse Fpr3 (Fpr-rs1) = biological target: T1, mouse Fpr3 (Fpr-rs1) (Mus musculus, UniProt O08790); assay: Heterologous expression / high-throughput Ca2+ imaging agonist screen and sequence selectivity of Fpr3 (Fig. 1a, 2c-e, 2g, 2i); assay type: cell-based; details: mean of n = 3 experiments in triplicate (n = 5 for f-MKKFRW), Fpr3 + Gα16 HEK293T, Fluo-4/AM, FLIPR, buffer C1 pH 7.2, mock 0.059-0.060
# T1 construct: expressed in transfected cells; host or cells: HEK293T (DSMZ # ACC-635), transient transfection with jetPEI
# T1 sequence (O08790 1-351): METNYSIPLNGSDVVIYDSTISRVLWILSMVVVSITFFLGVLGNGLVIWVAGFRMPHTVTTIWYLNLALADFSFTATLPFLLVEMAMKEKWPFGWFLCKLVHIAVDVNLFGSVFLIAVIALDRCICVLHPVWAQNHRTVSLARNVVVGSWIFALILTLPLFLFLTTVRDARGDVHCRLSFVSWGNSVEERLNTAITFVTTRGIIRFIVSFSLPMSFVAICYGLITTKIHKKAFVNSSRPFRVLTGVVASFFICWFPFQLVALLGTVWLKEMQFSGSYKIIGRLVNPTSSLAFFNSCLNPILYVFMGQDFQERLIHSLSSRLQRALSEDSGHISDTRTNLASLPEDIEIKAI
# Experimental: An Fpr3 gene subcloned from genomic DNA of C57BL/6J mice into pcDNA3.1 (Invitrogen) was used in heterologous experiments[21],[80]. HEK293T (DSMZ # ACC-635) cells were seeded at 20–30% confluence on poly-D-lysine-coated (10 µg/ml in PBS) black 96-well µCLEAR-Plates (Greiner Bio-One). Cells were transfected 24 h later using jetPEI™ (Polyplus-transfection SA) according to the manufacturer’s protocol for 96-well transfections. For Ca^2+ imaging experiments, 0.125 µg of DNA plasmid encoding Fpr3 were cotransfected with equal amounts of a plasmid encoding Gα16, a promiscuous G protein α-subunit. Ca^2+ signals to agonist stimulation were recorded 48 h post transfection using the Ca^2+ indicator dye Fluo-4/AM (Molecular Probes) and a fluorescence imaging plate reader (FLIPR) system (Molecular Devices). Cotransfection of a plasmid encoding Gα16 with an empty vector used to subclone Fpr3 gave no agonist-evoked Ca^2+ responses.
# We used custom-made peptides with a length of 6–21 amino acids to screen for agonists. Sequences of fMet peptides were designed according to motifs present at the N-termini of 15,125 specific bacterial proteins as annotated in UniProt. Peptides were chemically synthesised, purified, and verified by mass spectroscopy (MALDI-TOF) by commercial suppliers. Purity of all peptides was >95%. Source, sequence and purity of each peptide are listed in Supplementary Data 1. Lyophilised peptides were routinely dissolved in the Ca^2+ imaging assay buffer C1 (130 mM NaCl, 10 mM HEPES, 5 mM KCl, 2 mM CaCl2, 5 mM glucose, pH 7.2) as 0.2–1 mM stock solutions and kept in small aliquots at −20 °C until use. […] The sequences of these peptides exist in proteins from the following bacterial strains[21]: Psychromonas ingrahamii that belongs to a marine ice water microbial community, Desulfotomaculum reducens that is found in deep freshwater lakes, and Pseudomonas grimontii, a plant pathogen. As mice are unlikely to encounter these strains in their natural habitat, these findings are probably not of biological relevance.
# male mice = assay: Behavioural avoidance test, FEU vs. FEU supplemented with peptide (Fig. 8, Supplementary Fig. 4); assay type: in vivo, mouse; details: Fig. 8c, B6 mice
# Experimental: These assays were adapted from behavioural procedures described previously[14],[60]. We tested avoidance by giving adult male mice (8–14 week old) of various genotypes a choice to freely investigate two types of chemical stimuli: FEU vs. FEU supplemented with a peptide. Mice were sexually naïve and not exposed to the test stimuli prior to the testing day. Mice were habituated for three days (40 min each day) to clean filter papers (2.5 cm diameter), each deposited in a sterile plastic culture dish and placed in opposite corners of the test cage (30 × 12 cm). After the third habituation period, the test subject was transferred into a new cage containing fresh filter papers/dishes with either of the two test stimuli. One filter paper was impregnated with 45 µl of fresh urine pooled from two sexually naïve female B6 mice (8–16 weeks old) in oestrus (FEU, female oestrous urine) and 5 µl physiological solution containing (in mM): NaCl, 130; KCl, 5; Na-Hepes, 10; CaCl2, 2; glucose, 10; pH = 7.4. For testing the effects of specific peptides, the second filter paper was impregnated with FEU supplemented with a given peptide (100 or 50 µM final concentration, dissolved in physiological solution). Direct physical contact was allowed. Behaviour was recorded for 10 min from the top of the cage. Mice were exposed only once to a given peptide solution, and were exposed to only one peptide stimulus per day. Stimuli were presented in randomised order. […] This investigative behaviour was quantified as the time spent in close contact with each filter paper, scored manually by an observer blind to the experimental conditions using Behavioural Observation Research Interactive Software (BORIS)[85]. Contact time was measured as the time during which the nose crossed the border of a petri dish containing impregnated filter paper. An avoidance index was calculated as (TP — aTU)/(aTP + aTU), with TP as the time an individual mouse investigated a FEU-peptide mixture, aTP as the average time of all tested mice investigating this stimulus and aTU as the average time of all mice investigating FEU without added peptide. Negative values represent avoidance and positive values represent attraction. For analysing investigation of sick conspecifics, B6 mice were injected either with LPS or PBS as described above. In total, 4 h post injection, these mice were anaesthetised with 165 mg/kg ketamine (Pharmacia GmbH, Berlin, Germany) and 11 mg/kg xylazine (Bayer Health Care, Leverkusen, Germany) and then used in behavioural tests.
Substance,"Ca2+ response, mean (mouse Fpr3 (Fpr-rs1); 3 µM)","Ca2+ response, mean (mouse Fpr3 (Fpr-rs1); 30 µM)",Preference Index (male mice; individual values),"Preference Index (male mice; mean, n = 11 f-MKKFRW, 11 MKKFRW, 10 f-MGFFIS, 10 f-MEQQNK, FEU control -0.002)"
f-MKKHRW [synthesized fMet peptide],0.061 ∆F/F,0.054 ∆F/F,,
f-MLFKYL [synthesized fMet peptide],0.053 ∆F/F,0.056 ∆F/F,,
f-MNPITL [synthesized fMet peptide],0.053 ∆F/F,0.062 ∆F/F,,
f-MKKTLSLKN [synthesized fMet peptide],0.068 ∆F/F,0.058 ∆F/F,,
f-MAMKKL [synthesized fMet peptide],0.058 ∆F/F,0.059 ∆F/F,,
f-MKKNLV [synthesized fMet peptide],0.052 ∆F/F,0.053 ∆F/F,,
f-MKKFYS [synthesized fMet peptide],0.058 ∆F/F,0.056 ∆F/F,,
f-MTNKIS [synthesized fMet peptide],0.052 ∆F/F,0.049 ∆F/F,,
f-MPSTFF [synthesized fMet peptide],0.063 ∆F/F,0.065 ∆F/F,,
f-MKKIML [synthesized fMet peptide],0.050 ∆F/F,0.055 ∆F/F,,
f-MTNMRK [synthesized fMet peptide],0.089 ∆F/F,0.060 ∆F/F,,
f-MKKISKFLP [synthesized fMet peptide],0.055 ∆F/F,0.072 ∆F/F,,
f-MVKIIF [synthesized fMet peptide],0.045 ∆F/F,0.054 ∆F/F,,
f-MTHQTH [synthesized fMet peptide],0.064 ∆F/F,0.077 ∆F/F,,
f-MKKYKRLLL [synthesized fMet peptide],0.074 ∆F/F,0.065 ∆F/F,,
f-MLFKYS [synthesized fMet peptide],0.054 ∆F/F,0.048 ∆F/F,,
f-MKKWRW [synthesized fMet peptide],0.056 ∆F/F,0.063 ∆F/F,,
f-MKKFLL [synthesized fMet peptide],0.052 ∆F/F,0.050 ∆F/F,,
f-MEQQNK [synthesized fMet peptide],0.047 ∆F/F,0.050 ∆F/F,-0.06064 and -0.05774 and -0.1328 and -0.09632 and 0.7296 and -0.0445 and 0.1064 and -0.1977 and 0.2779 and -0.1553,0.0369
f-MAYPFQ [synthesized fMet peptide],0.059 ∆F/F,0.061 ∆F/F,,

Substance,"Ca2+ response, mean (mouse Fpr3 (Fpr-rs1); 3 µM)","Ca2+ response, mean (mouse Fpr3 (Fpr-rs1); 30 µM)",Preference Index (male mice; individual values),"Preference Index (male mice; mean, n = 11 f-MKKFRW, 11 MKKFRW, 10 f-MGFFIS, 10 f-MEQQNK, FEU control -0.002)"
f-MAQDIISTI [synthesized fMet peptide],0.079 ∆F/F,0.075 ∆F/F,,
f-MKKLLNKIV [synthesized fMet peptide],0.056 ∆F/F,0.054 ∆F/F,,
f-MINKKI [synthesized fMet peptide],0.058 ∆F/F,0.045 ∆F/F,,
f-MNIFTT [synthesized fMet peptide],0.059 ∆F/F,0.065 ∆F/F,,
f-MMKMEG [synthesized fMet peptide],0.048 ∆F/F,0.040 ∆F/F,,
"f-MKNFKG [synthesized fMet peptide, bacterial signal peptide fragment]",0.065 ∆F/F,0.052 ∆F/F,,
f-MKFCTA [synthesized fMet peptide],0.034 ∆F/F,0.080 ∆F/F,,
f-MLKIIL [synthesized fMet peptide],0.057 ∆F/F,0.057 ∆F/F,,
f-MKKFNI [synthesized fMet peptide],0.053 ∆F/F,0.044 ∆F/F,,
f-MEFVAK [synthesized fMet peptide],0.051 ∆F/F,0.076 ∆F/F,,
f-MFIYYCK [synthesized fMet peptide],0.053 ∆F/F,0.042 ∆F/F,,
f-MVMKFK [synthesized fMet peptide],0.053 ∆F/F,0.050 ∆F/F,,
f-MPQLDT [synthesized fMet peptide],0.060 ∆F/F,0.058 ∆F/F,,
f-MKTSIR [synthesized fMet peptide],0.055 ∆F/F,0.049 ∆F/F,,
f-MVPISI [synthesized fMet peptide],0.048 ∆F/F,0.044 ∆F/F,,
f-MPKLNR [synthesized fMet peptide],0.048 ∆F/F,0.033 ∆F/F,,
f-MEFVAKLFK [synthesized fMet peptide],0.071 ∆F/F,0.062 ∆F/F,,
"f-MNKKLL [f-MNKLL, synthesized fMet peptide]",0.038 ∆F/F,0.039 ∆F/F,,
f-MLNKKKRGN [synthesized fMet peptide],0.056 ∆F/F,0.058 ∆F/F,,
